Measured values from patent US6939850B2, “Altered human interleukin-1β convertase (ICE), NEDD-2, and C. elegans ced-3 polypeptides and uses therefor” (Massachusetts Institute of Technology, priority 1992, dated 2005).
Square brackets hold non-standard residues; d marks the D form. * marks the point of attachment. CH2Cl = ClC*

What was measured:
lumbar motoneurons = test: Naturally occurring lumbar motoneuron cell death in vivo; set-up: species or system chick; settings: mean ±SD; for Pyknotic Lumbar Motoneurons on E8: 15 hours post treatment, single administration of 400 μg on E8; for Healthy Motoneurons (lumbar) on E9 / Pyknotic Motoneurons (lumbar) on E9: 24 hours post treatment
Method: In the first model, embryos were treated with a single dose of an ICE inhibitor or control protease inhibitor on embryonic day 8 (E8), the time of maximum naturally occurring motoneuron cell death (Hamburger et al., J. Morph. 88:49-92 (1951)). Embryos treated in vivo with the peptide inhibitors appeared to develop normally and there were no gross abnormalties. […] 24 hours after treatment there is a similar reduction in the number of pyknotic cells and a significant increase in the number of healthy motoneurons (Table 6B). […] The ability of ICE inhibitors to block the naturally occurring cell death of interdigital cells in the developing limb was also studied. These cells undergo PCD as a means of sculpting the digits in many vertebrates. When embryos were treated with either ICE inhibitor on embryonic days, E6 and E7, there was a substantial reduction in the number of pyknotic cells between the digits of the hindlimb (FIG. 14).
Peptides. Two peptide inhibitors of ICE, Acetyl-Tyr-Val-Ala-Asp-aldehyde (Ac-YVAD-CHO) and Acetyl-Tyr-Val-Ala-Asp-chloromethylketone (Ac-YVAD-CMK) and two control peptide inhibitors, Acetyl-Leu-Leu-Arg-aldehyde (Ac-LLR-CHO; Leupeptin) and n-tosyl-Lys-chloromethyl-ketone (Tos-Lys-CMK) were synthesized by Bachem Biosciences (King of Prussia, Pa.) and shown by thin layer chromatography and HPLC to be greater than 98% pure. […] Methods for administration of peptides to examine effects on naturally occurring motoneuron cell death in vivo. Although cell death of lumbar motoneurons occurs between E6 and E12, the peak period of death (i.e., the greatest number of pyknotic cells) occurs on E8 (Oppenheim et al., J Comp. Neurol. 177:87-112 (1978)). For these experiments, embryos were given a single administration of an agent on E8 0 hr and sacrificed 15 hours later. […] Ac-YVAD-CMK and Tos-Lys-CMK were administered in a solution of DMSO/BSA, whereas Ac-YVAD-CHO and leupeptin (Sigma) were in BSA alone. The solutions (50-100 μl) were dropped onto the highly vascularized chorioallantoic membrane through a window in the shell. The control groups included both DMSO and BSA or vehicle alone. Embryos were killed and staged by the Hamburger-Hamilton series (Hamburger and Hamilton, J. Morph. 88:49-92 (1951)). The thoraco-lumbar spinal cord was dissected, fixed in Camoys or Bouins fixative, processed for paraffin histology, serially sectioned (10-12 μm) and stained with either thionin or hematoxylin and eosin. Pyknotic motoneurons were identified based on criteria previously described (Chu-Wang and Oppenheim, J. Comp. Neurol. 177:33-58 (1978); Clarke and Oppenheim In Methods in Cell Biology Series; Cell Death; eds: Schwartz and Osborne. Academic Press. New York, N.Y. In press.) and were counted in every 10th or 20th section through the entire lumbar enlargement. The total number of pyknotic cells were then estimated by multiplying these values by 10 or 20. All cell counts were performed by individuals blinded with regard to drug treatment of the embryos. Methods for limb bud removal experiments. A unilateral limb bud removal was performed on E2 as described previously (Oppenheim et al., J. Comp. Neurol. 177:87-112 (1978)). Because induced cell death following limb removal begins on E5 (before that there is no difference in the number of motoneurons between the operated or unoperated sides) embryos were given one treatment of Ac-YVAD-CHO (40 μg) or BSA (control) at E5-0 hr and another at E5-12 hours (total peptide administered was 80 μg). Animals were killed at E6-0 hr. Methods were the same as described above except the section thickness was 6-8 μm (see Method for Administration of Peptides, above). Methods for limb bud interdigital regions. […]

cervical motoneurons = test: Cervical motoneuron cell death in vivo; set-up: species or system chick; settings: for Pyknotic Cervical Motoneurons on E4.5: mean ±SD
Description: The ability of the ICE inhibitors to block cell death in two classes of neurons whose naturally occurring death appears to be independent of target interaction was also studied. First, motoneurons in the cervical spinal cord undergo PCD between E4 and E5, with maximum levels occurring at E4.5.

ICE = molecular target: T1, ICE (Homo sapiens, UniProt P29466); settings: protease activity of ICE; cited from earlier work
T1 sequence (P29466 120-297): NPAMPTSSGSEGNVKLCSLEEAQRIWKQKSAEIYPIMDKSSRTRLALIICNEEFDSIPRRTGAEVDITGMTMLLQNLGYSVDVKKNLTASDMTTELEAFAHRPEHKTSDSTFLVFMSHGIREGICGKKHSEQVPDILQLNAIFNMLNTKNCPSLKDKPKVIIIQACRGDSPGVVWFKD
T1 sequence (P29466 317-404): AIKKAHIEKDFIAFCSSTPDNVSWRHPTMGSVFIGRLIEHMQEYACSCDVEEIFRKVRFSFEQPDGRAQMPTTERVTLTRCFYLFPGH

chick spinal motoneurons = test: Motoneuron culture deprived of muscle extract, survival; type: cell-based; settings: without muscle extract, treated between 14 and 24 hours, counted after 3 days
Description: A tissue culture model system that allows isolation of a relatively pure population of motoneurons whose survival is dependent on muscle extract, a potent source of target-derived trophic support, was used to test the ability of peptide inhibitors of ICE to block motoneuron cell death (Milligan et al., J Neurobiology 25:1005-1016 (1994) and Block-Gallego et al., Development. 111:221-232 (1991)). The death of motoneurons deprived of trophic support in vitro requires new gene expression and occurs by apoptosis (Milligan et al., J. Neurobiology 25:1005-1016 (1994)). Motoneurons deprived of trophic support at the time of plating become irreversibly committed to undergo cell death after 16-18 hours (Milligan et al., J. Neurobiology 25:1005-1016 (1994)). […] When motoneurons are treated with peptide inhibitors in the absence of muscle extract for three days and subsequently supplemented on day three with muscle extract, they continue to survive, and by six days appear as healthy and differentiated as the motoneurons that were continuously supplied with muscle extract (FIGS. 12A, 12B, 15G). Thus, motoneurons rescued for 3 days by ICE inhibitors remain capable of responding to trophic factors present in muscle extract.
Methods for motoneuron cultures. […]

[1] = tested on: undifferentiated neurons and precursor cells in the neural tube; test: Cell death in the early neural tube in vivo; set-up: species or system chick

Molecule	Pyknotic Lumbar Motoneurons on E8 (lumbar motoneurons)	Healthy Motoneurons (lumbar) on E9 (lumbar motoneurons)	Pyknotic Motoneurons (lumbar) on E9 (lumbar motoneurons)	Pyknotic Cervical Motoneurons on E4.5 (cervical motoneurons)	Ki (ICE) [nM]	motoneuron death (chick spinal motoneurons)	survival promoting effects on cervical motoneurons (cervical motoneurons; compared to control or Ac-LLR-CHO treated animals)	survival promoting effects on floorplate or dorsal spinal cord cells ([1]; compared to control animals)	Pyknotic Cells in the Early Neural Tube, Dorsal Spinal Cord ([1]; mean ±SD)	Pyknotic Cells in the Early Neural Tube, Floor Plate ([1]; mean ±SD)
CC(=O)N[C@@H](CC(C)C)C(=O)N[C@@H](CC(C)C)C(=O)N[C@H](C=O)CCCNC(=N)N [Leupeptin, Acetyl-Leu-Leu-Arg-aldehyde]	310 ± 40	14,117 ± 971	297 ± 51	32.5 ± 7.9						
Cc1ccc(S(=O)(=O)NC(CCCCN)C(=O)CCl)cc1 (stereo not drawn) [Tos-Lys-CMK, n-tosyl-Lys-chloromethyl-ketone]	285 ± 31	13,257 ± 773	345 ± 39							
Ac-Tyr-Val-Lys-Asp-CHO (Ac-YVKD-aldehyde; SMILES CC(=O)N[C@@H](Cc1ccc(O)cc1)C(=O)N[C@H](C(=O)N[C@@H](CCCCN)C(=O)N[C@H](C=O)CC(=O)O)C(C)C) [Inhibitor D]					3					
Ac-Y[dA]AD-aldehyde [Inhibitor C]					1500					
Acetyl-Tyr-Val-Ala-Asp-chloromethylketone (Ac-YVAD-CH2Cl) [Ac-YVAD-CMK]	216 ± 27	16,231 ± 755	200 ± 33	26.7 ± 2.2		inhibitory effects on motoneuron death	no survival promoting effects	no survival promoting effects	1.372 ± 0.235	0.872 ± 0.201
